Test [1] concerns the target protein kinase C (mixed isozymes). Description: Protein kinase C TCA precipitation assay. The test is classed as biochemical, rat. The note with it: Table 5; read-out: PKC IC50. The method, then:
Enzymes: Cdc2/cyclin B was obtained from commercial sources. Cdk2/his-cyclin Eshort was expressed in Sf9 cells. Cdk2/cyclin A, cdk4/cyclin D1, and cdk6/cyclin D2 were expressed in Sf9 cells. Protein kinase A (catalytic subunit, from bovine heart) and protein kinase C (mixed isozymes from rat brain) were obtained from commercial sources.
Protein kinase C and protein kinase A were assayed using a TCA precipitation assay with Histone H1 as a substrate. For protein kinase A, the final assay contained 50 mM Tris, 10 mM MgCl2, 1 mM dithiothreitol, pH 7.5, 12 μM adenosine triphosphate, 10% (v/v) dimethylsulfoxide (from compounds), 20 μg Histone H1, 2 μCi [γ-^32P] adenosine triphosphate, 0.2 U protein kinase A in a 100 μL assay. A protein kinase C assay contained 50 mM Tris, 10 mM MgCl2, 1 mM dithiothreitol, 0.8 mM CaCl2, pH 7.5, 5 μM adenosine triphosphate, 10% (v/v) dimethylsulfoxide (from compounds), 20 μg Histone H1, 2 μCi [γ-^32P] adenosine triphosphate, 0.01 U protein kinase C in a 50 μL assay. The assays were started by the addition of enzyme, allowed to react for 10 min at 30° C., and stopped by adding 0.4 volumes of 237 mM disodium ethylenediamine tetraacetate, 105 mM adenosine triphosphate, pH 8.0. […] The filters were washed ten times with 25% (w/v) trichloroacetic acid, and the amount of incorporated [^32P]phosphate was determined by adding 100 μl Microscint and scintillation counting.

Test [2] has as its system HCT-116 cells. Description: Calcein AM viability assay, HCT-116. The note with it: Homo sapiens, HCT-116, plus 1 mg/ml alpha acidic glycoprotein and 45 mg/ml human serum albumin; read-out: HCT-116 IC50 Protein adjusted. The test is classed as cell-based. The procedure, abridged: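 Cells plated (1,000 HCT-116 in RPMI-1640/10% FCS; 4,000 IMR90 in MEM-alpha/10% FCS), adhered overnight, then given 7 doses of compound at 0-250 nM for 72 h at 37 °C. Viability read by Calcein AM fluorescence (ex 485, em 530) after 75 min; IC50 derived.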

Test [3] relates to HCT-116 cells. Description: BrdU incorporation assay. The test is classed as cell-based. The following applies: Homo sapiens, read-out: Brd U, concentration that inhibits BrdU incorporation by 50%. As to the method:
This method measured the percentage of cells that incorporated the nucleotide analog, BrdU, into newly synthesized DNA as cells progressed through the S phase of the cell cycle. The inhibition of BrdU incorporation was used as a measure of a Cdk inhibitor's effect on S phase progression and DNA replication.
3 sets of HCT-116 cells (100,000 cells/set) were plated in T25 flasks and incubated with a test compound as above. Analysis was done at 24, 48, and 72 hours. BrdU was added to each T-25 flask from a stock of 10 mg/ml to a final concentration of 10 μM and the cells were incubated for an additional 16-18 hours at 37° C. The cells were then prepared for flow cytometric analysis according to manufacturer's protocol (BrdU Flow kit, BD-Pharmingen catalogue #2354KK) as follows:
Cells were harvested (adherent and floating) from the T25 flasks directly into Falcon 12×75 flow cytometric tubes as above followed by fixation and permeabilization with the addition of 100 μl of Cytofix/Cytoperm buffer (30 minutes, room temperature). The cells were then washed with 1 ml of Perm Wash buffer and the cell pellets were resuspended in 100 μl Cytoperm Plus buffer and incubated on ice for 10 minutes. The cells were then washed again with 1 ml of Perm Wash buffer and the fixation was repeated in 100 μl of Cytofix/Cyto Perm buffer for 10 minutes at room temperature. The cells were then washed with 1 ml of Perm Wash buffer. The cells were next treated for one hour at 37° C. with 100 μl DNase to expose incorporated BrdU followed by another wash step with 1 ml of Perm Wash buffer. […] Cells were protected from light and incubated at room temperature for 20-30 minutes. Following the incubation, the cells were washed with 1 ml of Perm Wash buffer, resuspended in 300 μl of 2% FBS in PBS, and analyzed on the flow cytometer. Results are presented in Table 2 as the concentration of compound (μM) that inhibits of BrdU incorporation by 50%.

The source of these data is US7605175B2, “Inhibitors of cyclin-dependent kinases, compositions and uses related thereto” (GPC Biotech AG, priority 2001, dated 2009).

pIC50: −log10 of the molar value.

As for `CC(C)c1nn(-c2c(Cl)cccc2Cl)c2nc(Cc3ccc(O)c(CN4CCN(C(C)C)CC4)c3)[nH]c(=O)c12` [Compound C], the pIC50 in test [1] is below 5.00; with HCT-116 cells [2] it was above 6.00; with HCT-116 cells [3] (HCT-116, 24 h) it was above 7.00; with HCT-116 cells [3] (HCT-116, 48 h), above 7.00.
